From ChEMBL document CHEMBL5390254, “Discovery and Optimization of Novel hDHODH Inhibitors for the Treatment of Inflammatory Bowel Disease” (J Med Chem, 2023)
The source made the active and inactive calls. No cut-off for these calls is given here.

Experiments:
[1] = 1-octanol/water partition coefficient, logP of the compound at 2 mg by UPLC analysis; format: physicochemical
[2] = Acute toxicity in BALB/c mouse assessed as changes in hemoglobin level in blood at 1000 mg/kg,po and measured after 14 days by hematology test; format: organism-based; conditions: in vivo, 336 h, time 14 day
[3] = Metabolic stability in mouse liver microsomes assessed as half life at 3 uM incubated upto 90 mins in presence of NADPH by LC-MS/MS analysis; format: ADME, Microsome
[4] = Acute toxicity in BALB/c mouse assessed as tissue damage in kidney at 1000 mg/kg,po and measured after 14 days by hematoxylin and eosin staining based microscopy; format: organism-based; conditions: in vivo, 336 h, time 14 day
[5] = tested on: Mus musculus; assay: Anti-inflammatory activity against DSS-induced acute ulcerative colitis in C57BL/6 mouse model assessed as decrease in IL-1beta mRNA expression level in colon at 100 mg/kg, po QD for 6 days by RT-PCR analysis; format: functional, organism-based; conditions: time 6.0 day
[6] = Acute toxicity in BALB/c mouse assessed as tissue damage in lung at 1000 mg/kg,po and measured after 14 days by hematoxylin and eosin staining based microscopy; format: organism-based; conditions: in vivo, 336 h, time 14 day
[7] = Acute toxicity in BALB/c mouse assessed as changes in CK level in serum at 1000 mg/kg,po and measured after 14 days by Biochemistry analysis; format: organism-based; conditions: in vivo, 336 h, time 14 day
[8] = tested on: Mus musculus; assay: Anti-inflammatory activity against DSS-induced acute ulcerative colitis in C57BL/6 mouse model assessed as decrease in IL-17 mRNA expression level in colon at 100 mg/kg, po QD for 6 days by RT-PCR analysis; format: functional, organism-based; conditions: time 6.0 day
[9] = Metabolic stability in human liver microsomes assessed as intrinsic clearance at 3 uM incubated upto 90 mins in presence of NADPH by LC-MS/MS analysis; format: ADME, Microsome; conditions: read-out: CLH
[10] = Metabolic stability in rat liver microsomes assessed as intrinsic clearance at 3 uM incubated upto 90 mins in presence of NADPH by LC-MS/MS analysis; format: ADME, Microsome; conditions: read-out: CLH
[11] = Acute toxicity in BALB/c mouse assessed as changes in neutrophil level in blood at 1000 mg/kg,po and measured after 14 days by hematology test; format: organism-based; conditions: in vivo, 336 h, time 14 day
[12] = tested on: Mus musculus; assay: Anti-inflammatory activity against DSS-induced acute ulcerative colitis in C57BL/6 mouse model assessed as decrease in IL-6 mRNA expression level in colon at 100 mg/kg, po QD for 6 days by RT-PCR analysis; format: functional, organism-based; conditions: time 6.0 day
[13] = Metabolic stability in mouse liver microsomes assessed as intrinsic clearance at 3 uM incubated upto 90 mins in presence of NADPH by LC-MS/MS analysis; format: ADME, Microsome; conditions: read-out: CLH
[14] = Acute toxicity in po dosed BALB/c mouse assessed as maximum tolerate dose; format: organism-based; conditions: in vivo
[15] = tested on: Mus musculus; assay: Anti-inflammatory activity against DSS-induced acute ulcerative colitis in C57BL/6 mouse model assessed as decrease in IL-1beta production in colon at 100 mg/kg, po QD for 6 days by ELISA; format: functional, organism-based; conditions: time 6.0 day
[16] = Acute toxicity in BALB/c mouse assessed as changes in platelet count in blood at 1000 mg/kg,po and measured after 14 days by hematology test; format: organism-based; conditions: in vivo, 336 h, time 14 day
[17] = tested on: Mus musculus; assay: Anti-inflammatory activity against DSS-induced acute ulcerative colitis in C57BL/6 mouse model assessed as decrease in DAI score at 100 mg/kg, po QD for 6 days; format: functional, organism-based; conditions: time 6.0 day
[18] = Acute toxicity in BALB/c mouse assessed as tissue damage in spleen at 1000 mg/kg,po and measured after 14 days by hematoxylin and eosin staining based microscopy; format: organism-based; conditions: in vivo, 336 h, time 14 day
[19] = Acute toxicity in BALB/c mouse assessed as changes in CREA level in serum at 1000 mg/kg,po and measured after 14 days by Biochemistry analysis; format: organism-based; conditions: in vivo, 336 h, time 14 day
[20] = tested on: Mus musculus; assay: Anti-inflammatory activity against DSS-induced acute ulcerative colitis in C57BL/6 mouse model assessed as decrease in colon length shortening at 100 mg/kg, po QD for 6 days (Rvb= 5.5cm); format: functional; conditions: time 6 day
[21] = tested on: Mus musculus; assay: Anti-inflammatory activity against DSS-induced acute ulcerative colitis in C57BL/6 mouse model assessed as decrease in colon tissue damage score at 100 mg/kg, po QD for 6 days relative to DSS group; format: functional; set-up: scale not given: the % may be the effect or the level left; conditions: time 6 day
[22] = Acute toxicity in BALB/c mouse assessed as body weight loss at 1000 mg/kg,po and measured for 14 days; format: organism-based; conditions: in vivo, 336 h, time 14 day
[23] = Acute toxicity in BALB/c mouse assessed as changes in ALB level in serum at 1000 mg/kg,po and measured after 14 days by Biochemistry analysis; format: organism-based; conditions: in vivo, 336 h, time 14 day
[24] = Acute toxicity in BALB/c mouse assessed as changes in urea level in serum at 1000 mg/kg,po and measured after 14 days by Biochemistry analysis; format: organism-based; conditions: in vivo, 336 h, time 14 day
[25] = Acute toxicity in BALB/c mouse assessed as changes in UA level in serum at 1000 mg/kg,po and measured after 14 days by Biochemistry analysis; format: organism-based; conditions: in vivo, 336 h, time 14 day
[26] = Acute toxicity in BALB/c mouse assessed as tissue damage in liver at 1000 mg/kg,po and measured after 14 days by hematoxylin and eosin staining based microscopy; format: organism-based; conditions: in vivo, 336 h, time 14 day
[27] = Acute toxicity in BALB/c mouse assessed as changes in TP level in serum at 1000 mg/kg,po and measured after 14 days by Biochemistry analysis; format: organism-based; conditions: in vivo, 336 h, time 14 day
[28] = Acute toxicity in BALB/c mouse assessed as changes in ALP level in serum at 1000 mg/kg,po and measured after 14 days by Biochemistry analysis; format: organism-based; conditions: in vivo, 336 h, time 14 day
[29] = Metabolic stability in human liver microsomes assessed as half life at 3 uM incubated upto 90 mins in presence of NADPH by LC-MS/MS analysis; format: ADME, Microsome
[30] = tested on: Mus musculus; assay: Anti-inflammatory activity against DSS-induced acute ulcerative colitis in C57BL/6 mouse model assessed as decrease in IL-6 production in colon at 100 mg/kg, po QD for 6 days by ELISA; format: functional, organism-based; conditions: time 6.0 day
[31] = tested on: Mus musculus; assay: Anti-inflammatory activity against DSS-induced acute ulcerative colitis in C57BL/6 mouse model assessed as decrease in body weight loss at 100 mg/kg, po QD for 6 days (Rvb= 25.6%); format: functional; set-up: scale not given: the % may be the effect or the level left; conditions: time 6 day
[32] = Acute toxicity in BALB/c mouse assessed as changes in ALT level in serum at 1000 mg/kg,po and measured after 14 days by Biochemistry analysis; format: organism-based; conditions: in vivo, 336 h, time 14 day
[33] = tested on: Mus musculus; assay: Anti-inflammatory activity against DSS-induced acute ulcerative colitis in C57BL/6 mouse model assessed as decrease in IL-17 production in colon at 100 mg/kg, po QD for 6 days by ELISA; format: functional, organism-based; conditions: time 6.0 day
[34] = Acute toxicity in BALB/c mouse assessed as death at 1000 mg/kg,po and measured for 14 days; format: organism-based; conditions: in vivo, 336 h, time 14 day
[35] = Acute toxicity in BALB/c mouse assessed as changes in general health status at 1000 mg/kg,po and measured for 14 days; format: organism-based; conditions: in vivo, 336 h, time 14 day
[36] = Acute toxicity in BALB/c mouse assessed as changes in AST level in serum at 1000 mg/kg,po and measured after 14 days by Biochemistry analysis; format: organism-based; conditions: in vivo, 336 h, time 14 day
[37] = Acute toxicity in BALB/c mouse assessed as changes in hematocrit level in blood at 1000 mg/kg,po and measured after 14 days by hematology test; format: organism-based; conditions: in vivo, 336 h, time 14 day
[38] = Acute toxicity in BALB/c mouse assessed as tissue damage in heart at 1000 mg/kg,po and measured after 14 days by hematoxylin and eosin staining based microscopy; format: organism-based; conditions: in vivo, 336 h, time 14 day
[39] = Acute toxicity in BALB/c mouse assessed as changes in lymph level in blood at 1000 mg/kg,po and measured after 14 days by hematology test; format: organism-based; conditions: in vivo, 336 h, time 14 day
[40] = Acute toxicity in BALB/c mouse assessed as changes in RBC level in blood at 1000 mg/kg,po and measured after 14 days by hematology test; format: organism-based, Erythrocyte; conditions: in vivo, 336 h, time 14 day
[41] = Acute toxicity in BALB/c mouse assessed as changes in WBC level in blood at 1000 mg/kg,po and measured after 14 days by hematology test; format: organism-based; conditions: in vivo, 336 h, time 14 day
[42] = Metabolic stability in rat liver microsomes assessed as half life at 3 uM incubated upto 90 mins in presence of NADPH by LC-MS/MS analysis; format: ADME, Microsome
[43] = Acute toxicity in BALB/c mouse assessed as changes in LDH level in serum at 1000 mg/kg,po and measured after 14 days by Biochemistry analysis; format: organism-based; conditions: in vivo, 336 h, time 14 day
[44] = Apparent volume of distribution during terminal phase in Sprague-Dawley rat at 15 mg/kg, po and measured upto 48 hrs by LC-MS/MS analysis; format: ADME, organism-based; conditions: in vivo, read-out: Vz/F
[45] = Apparent oral clearance in Han Wistar rat at 5 mg/kg,po and measured upto 24 hrs by LC-MS analysis; format: ADME, organism-based; conditions: in vivo
[46] = Oral bioavailability in Han Wistar rat at 5 mg/kg and measured upto 24 hrs by LC-MS analysis; format: ADME, organism-based; conditions: in vivo
[47] = molecular target: Dihydroorotate dehydrogenase (quinone), mitochondrial (Homo sapiens) (UniProt Q02127); conditions: dose 10.0 µM
Chain of Dihydroorotate dehydrogenase (quinone), mitochondrial (Homo sapiens) (Q02127 whole entry): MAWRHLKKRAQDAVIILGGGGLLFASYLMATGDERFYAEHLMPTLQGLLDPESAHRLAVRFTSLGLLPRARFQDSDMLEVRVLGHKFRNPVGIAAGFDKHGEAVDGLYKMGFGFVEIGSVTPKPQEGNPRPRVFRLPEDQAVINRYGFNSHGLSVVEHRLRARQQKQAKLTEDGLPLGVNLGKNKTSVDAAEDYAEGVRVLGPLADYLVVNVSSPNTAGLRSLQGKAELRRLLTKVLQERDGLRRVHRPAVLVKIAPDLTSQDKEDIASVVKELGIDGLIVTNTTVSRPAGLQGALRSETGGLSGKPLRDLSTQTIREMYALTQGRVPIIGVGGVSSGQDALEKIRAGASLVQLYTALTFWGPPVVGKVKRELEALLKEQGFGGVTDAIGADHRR
Description: Binding affinity to human DHODH assessed as change in melting temperature at 10 uM by thermal shift based DSF assay

[48] = Terminal half life in Han Wistar rat at 5 mg/kg,po and measured upto 24 hrs by LC-MS analysis; format: ADME, organism-based; conditions: in vivo, read-out: beta t1/2 (converted)

Fc1cccc(F)c1Cn1cc(-c2ncc(C3CC3)cn2)c2cccnc21
logP [1]: 5.5

Fc1cccc(Cl)c1Cn1cc(-c2ncc(C3CC3)cn2)c2cccnc21
Activity [2]: Non-Toxic
half-life at 3 µM [3]: 7.9 min
Activity [4]: Non-Toxic
Activity [5]: Active
Activity [6]: Non-Toxic
logP [1]: 5.3
Activity [7]: Non-Toxic
Activity [8]: Active
CLint scaled at 3 µM [9]: 11.4 L/h/kg
CLint scaled at 3 µM [10]: 9.01 L/h/kg
Activity [11]: Non-Toxic
Activity [12]: Active
CLint scaled at 3 µM [13]: 41.6 L/h/kg
MTD [14]: 1000 mg/kg
Activity [15]: Active
Activity [16]: Non-Toxic
Activity [17]: Active
Activity [18]: Non-Toxic
Activity [19]: Non-Toxic
Activity [20]: 6.1 cm
Activity [21]: 27.27%
Activity [22]: Non-Toxic
Activity [23]: Non-Toxic
Activity [24]: Non-Toxic
Activity [25]: Non-Toxic
Activity [26]: Non-Toxic
Activity [27]: Non-Toxic
Activity [28]: Non-Toxic
half-life at 3 µM [29]: 9.2 min
Activity [30]: Active
Activity [31]: 17.6%
Activity [32]: Non-Toxic
Activity [33]: Active
Activity [34]: Non-Toxic
Activity [35]: Non-Toxic
Activity [36]: Non-Toxic
Activity [37]: Non-Toxic
Activity [38]: Non-Toxic
Activity [39]: Non-Toxic
Activity [40]: Non-Toxic
Activity [41]: Non-Toxic
half-life at 3 µM [42]: 16.5 min
Activity [43]: Non-Toxic

COc1cccc(-c2ccc(NC(=O)C3=C(C(=O)O)CCC3)c(F)c2)c1 [VIDOFLUDIMUS]
Activity [5]: Active
Activity [8]: Active
Activity [12]: Active
Activity [15]: Active
Vd/F [44]: 0.02 L/kg
CL/F [45]: 13.2 L/h/kg
Activity [20]: 6.4 cm
Activity [21]: 22.73%
bioavailability [46]: 73.8%
Activity [30]: Active
ΔTm [47]: 9.8 °C
Activity [33]: Active
half-life [48]: 546 min
